Experimental data reported in patent US20230265116A1, “DEGRADATION OF (EGFR) BY CONJUGATION OF EGFR INHIBITORS WITH E3 LIGASE LIGAND AND METHODS OF USE” (BEIGENE, LTD., priority 2020, published 2023).
Read-outs that look alike come from different tables or passages of the source.

Assays:
[1] = molecular target: T1, EGFR L858R/T790M/C797S (BaF3-LTC cells) (Homo sapiens, UniProt P00533, C797S/L858R/T790M); test: EGFR degradation HTRF assay, BaF3-LTC cells; assay type: cell-based; conditions: BaF3-LTC cells; for DC50: EGFR degradation, IC50 (DC50) from curve fit, read-out: DC50(nM) BaF3-LTC; for Dmax: maximum percentage of inhibition (degradation), read-out: Dmax (%) BaF3-LTC
T1 construct: expressed in transfected cells; host or cells: BaF3
How it was run: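 Cells treated 16 h at 37 °C, 5% CO2 in medium with 0.2% DMSO; top final concentration 10 uM, 5-fold dilution, 8 doses. Lysates read by HTRF (665/620 nm); degradation % versus DMSO high control, DC50 from four-parameter fit, Dmax as maximal degradation.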

[2] = tested on: EGFR Del19/T790M/C797S (H1975-clone #28); test: EGFR degradation HTRF assay, H1975-clone #28 DTC cells; assay type: cell-based
How it was run: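 Lentiviral Del19/T790M/C797S (clone #28) or Del19/C797S (clone #23) EGFR expressed in H1975 with endogenous EGFR knocked out. Cells treated 16 h, 37 °C, 8 doses, 5-fold from 10 uM top, 0.2% DMSO; EGFR read by HTRF after lysis. Degradation % vs DMSO control; DC50, Dmax from four-parameter fit.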

[3] = H1975 # 28 DTC cells; EGFR degradation, IC50 (DC50) from curve fit; read-out: DC50(nM) H1975 # 28 DTC
[4] = H1975 # 28 DTC cells; maximum percentage of inhibition (degradation)

T1 sequence (P00533 25-1210 T790M/C797S/L858R): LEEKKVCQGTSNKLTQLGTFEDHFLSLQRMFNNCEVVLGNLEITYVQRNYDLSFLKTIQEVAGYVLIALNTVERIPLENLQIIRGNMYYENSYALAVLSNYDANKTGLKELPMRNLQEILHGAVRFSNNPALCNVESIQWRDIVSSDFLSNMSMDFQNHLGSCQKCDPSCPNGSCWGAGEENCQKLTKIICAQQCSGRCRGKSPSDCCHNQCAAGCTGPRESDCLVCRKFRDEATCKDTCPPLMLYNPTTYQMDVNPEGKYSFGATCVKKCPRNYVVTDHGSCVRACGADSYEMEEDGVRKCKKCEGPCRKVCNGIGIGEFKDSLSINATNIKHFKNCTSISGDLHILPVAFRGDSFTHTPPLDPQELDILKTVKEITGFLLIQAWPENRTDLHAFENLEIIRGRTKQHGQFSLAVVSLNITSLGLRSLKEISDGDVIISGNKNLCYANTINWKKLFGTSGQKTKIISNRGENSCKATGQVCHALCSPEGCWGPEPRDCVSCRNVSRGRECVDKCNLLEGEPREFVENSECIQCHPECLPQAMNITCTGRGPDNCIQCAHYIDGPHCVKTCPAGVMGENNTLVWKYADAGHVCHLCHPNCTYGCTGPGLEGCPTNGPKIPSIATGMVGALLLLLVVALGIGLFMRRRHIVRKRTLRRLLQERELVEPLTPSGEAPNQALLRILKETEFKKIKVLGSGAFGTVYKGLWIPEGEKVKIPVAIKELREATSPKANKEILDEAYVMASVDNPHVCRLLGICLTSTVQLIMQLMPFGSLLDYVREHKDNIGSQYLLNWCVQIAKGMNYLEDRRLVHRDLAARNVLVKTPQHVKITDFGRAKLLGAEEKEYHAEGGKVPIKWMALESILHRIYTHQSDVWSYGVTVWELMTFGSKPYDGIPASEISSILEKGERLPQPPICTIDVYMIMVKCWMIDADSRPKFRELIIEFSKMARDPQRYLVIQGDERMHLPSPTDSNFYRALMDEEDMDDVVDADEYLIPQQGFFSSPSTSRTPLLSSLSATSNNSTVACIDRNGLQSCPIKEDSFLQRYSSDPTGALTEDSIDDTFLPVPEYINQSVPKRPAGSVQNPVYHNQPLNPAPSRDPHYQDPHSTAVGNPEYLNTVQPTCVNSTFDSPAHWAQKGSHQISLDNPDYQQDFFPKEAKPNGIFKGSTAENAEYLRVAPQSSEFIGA

SMILES | DC50 [1] | Dmax [1] | DC50 [2, 3] | Dmax (%) H1975 # 28 DTC [2, 4] | DC50 ([2]; read-out: DC50(nM) H1975 # 28 DTC; H1975 # 28 DTC cells; EGFR degradation, IC50 (DC50) from curve fit)
CCOc1cc(N2CCC(N3CCN(CCc4c(F)cc5c(oc(=O)n5C5CCC(=O)NC5=O)c4F)CC3)CC2)c(CC)cc1Nc1ncc(Br)c(Nc2ccc3c(=O)n(CC)ncc3c2P(C)(C)=O)n1 (centres unmarked) [Example 629, 3-(6-(2-(4-(1-(4-((5-bromo-4-((5-(dimethylphosphoryl)-2-ethyl-1-oxo-1,2-dihydrophthalazin-6-yl)amino)pyrimidin-2-yl)amino)-5-ethoxy-2-ethylphenyl)piperidin-4-yl)piperazin-1-yl)ethyl)-5,7-difluoro-2-oxobenzo[d]oxazol-3(2H)-yl)piperidine-2,6-dione] | 7.66 nM | 89.5% | 0.965 nM | 71.58% | –
CCc1cc(Nc2ncc(Br)c(Nc3ccc4nc(C)ccc4c3P(C)(C)=O)n2)c(OC)cc1N1CCC(N2CCN(CCc3cc(F)c(C4CCC(=O)NC4=O)c(F)c3)[C@@H](C)C2)CC1 (stereo partly drawn) [Example 693, 3-(4-(2-((S)-4-(1-(4-((5-bromo-4-((5-(dimethylphosphoryl)-2-methylquinolin-6-yl)amino)pyrimidin-2-yl)amino)-2-ethyl-5-methoxyphenyl)piperidin-4-yl)-2-methylpiperazin-1-yl)ethyl)-2,6-difluorophenyl)piperidine-2,6-dione] | 13.8 nM | 84.5% | 0.812 nM | 66.27% | –
CCOc1cc(N2CCC(N3CCN(CC4CN(c5cccc6c5oc(=O)n6C5CCC(=O)NC5=O)C4)CC3)CC2)c(CC)cc1Nc1ncc(Br)c(Nc2ccc3nc(CC)ncc3c2P(C)(C)=O)n1 (centres unmarked) [Example 566, 3-(7-(3-((4-(1-(4-((5-bromo-4-((5-(dimethylphosphoryl)-2-ethylquinazolin-6-yl)amino)pyrimidin-2-yl)amino)-5-ethoxy-2-ethylphenyl)piperidin-4-yl)piperazin-1-yl)methyl)azetidin-1-yl)-2-oxobenzo[d]oxazol-3(2H)-yl)piperidine-2,6-dione] | 5.25 nM | – | – | 84.02% | 0.616 nM
CCc1cc(Nc2ncc(Br)c(Nc3ccc4nccnc4c3P(C)(C)=O)n2)c(OC)cc1N1CCC(N2CCN(CCc3cc(F)c([C@H]4CCC(=O)NC4=O)c(F)c3)CC2)CC1 [Example 751, (R)-3-(4-(2-(4-(1-(4-((5-bromo-4-((5-(dimethylphosphoryl)quinoxalin-6-yl)amino)pyrimidin-2-yl)amino)-2-ethyl-5-methoxyphenyl)piperidin-4-yl)piperazin-1-yl)ethyl)-2,6-difluorophenyl)piperidine-2,6-dione] | 9.43 nM | – | 0.759 nM | 92.19% | –
CCOc1cc(N2CCC(N3CCN(CCCc4cc(F)c([C@H]5CCC(=O)NC5=O)c(F)c4)CC3)CC2)c(CC)cc1Nc1ncc(Br)c(Nc2cc(F)c3nc(CC)ccc3c2P(C)(C)=O)n1 [Example 567, (R)-3-(4-(3-(4-(1-(4-((5-bromo-4-((5-(dimethylphosphoryl)-2-ethyl-8-fluoroquinolin-6-yl)amino)pyrimidin-2-yl)amino)-5-ethoxy-2-ethylphenyl)piperidin-4-yl)piperazin-1-yl)propyl)-2,6-difluorophenyl)piperidine-2,6-dione] | 13.2 nM | 92% | 3.01 nM | 56.23% | –
CCOc1cc(N2CCC(N3CCN(CCc4cc5oc(=O)n(C6CCC(=O)NC6=O)c5cc4F)CC3)CC2)c(CC)cc1Nc1ncc(Br)c(Nc2ccc3c(=O)n(CC)ncc3c2P(C)(C)=O)n1 (centres unmarked) [Example 628, 3-(6-(2-(4-(1-(4-((5-bromo-4-((5-(dimethylphosphoryl)-2-ethyl-1-oxo-1,2-dihydrophthalazin-6-yl)amino)pyrimidin-2-yl)amino)-5-ethoxy-2-ethylphenyl)piperidin-4-yl)piperazin-1-yl)ethyl)-5-fluoro-2-oxobenzo[d]oxazol-3(2H)-yl)piperidine-2,6-dione] | 3.24 nM | 92.3% | 0.715 nM | 76.12% | –
COc1cc(N2CCC3(CCN(CCCCCOc4cccc5c4CN(C4CCC(=O)NC4=O)C5=O)CC3)CC2)c(C)cc1Nc1ncc(Br)c(Nc2ccc3nccnc3c2P(C)(C)=O)n1 (centres unmarked) [Example 542, 3-(4-((5-(9-(4-((5-bromo-4-((5-(dimethylphosphoryl)quinoxalin-6-yl)amino)pyrimidin-2-yl)amino)-5-methoxy-2-methylphenyl)-3,9-diazaspiro[5.5]undecan-3-yl)pentyl)oxy)-1-oxoisoindolin-2-yl)piperidine-2,6-dione] | 11.2 nM | – | 0.75 nM | 45.37% | –
CCc1ccc2c(P(C)(C)=O)c(Nc3nc(Nc4cc(CC)c(N5CCC(N6CCN(CCc7cc(C)cc8c7oc(=O)n8C7CCC(=O)NC7=O)CC6)CC5)cc4OC)ncc3Br)ccc2n1 (centres unmarked) [Example 442, 3-(7-(2-(4-(1-(4-((5-bromo-4-((5-(dimethylphosphoryl)-2-ethylquinolin-6-yl)amino)pyrimidin-2-yl)amino)-2-ethyl-5-methoxyphenyl)piperidin-4-yl)piperazin-1-yl)ethyl)-5-methyl-2-oxobenzo[d]oxazol-3(2H)-yl)piperidine-2,6-dione] | 6.53 nM | 87% | 1.05 nM | 81.11% | –
CCc1ccc2c(P(C)(C)=O)c(Nc3nc(Nc4cc(C5CC5)c(N5CCC(N6CCN(CCc7cc(F)c([C@H]8CCC(=O)NC8=O)c(F)c7)CC6)CC5)cc4OC)ncc3Br)ccc2n1 [Example 550, (R)-3-(4-(2-(4-(1-(4-((5-bromo-4-((5-(dimethylphosphoryl)-2-ethylquinolin-6-yl)amino)pyrimidin-2-yl)amino)-2-cyclopropyl-5-methoxyphenyl)piperidin-4-yl)piperazin-1-yl)ethyl)-2,6-difluorophenyl)piperidine-2,6-dione] | 8.12 nM | 85.9% | 0.707 nM | 87.71% | –
CCOc1cc(N2CCC(N3CCN(CCC4CCN(c5cc(F)c6c(c5)n(CC)c(=O)n6C5CCC(=O)NC5=O)CC4)CC3)CC2)c(CC)cc1Nc1ncc(Br)c(Nc2ccc3c(=O)n(CC)ncc3c2P(C)(C)=O)n1 (centres unmarked) [Example 640, 3-(5-(4-(2-(4-(1-(4-((5-bromo-4-((5-(dimethylphosphoryl)-2-ethyl-1-oxo-1,2-dihydrophthalazin-6-yl)amino)pyrimidin-2-yl)amino)-5-ethoxy-2-ethylphenyl)piperidin-4-yl)piperazin-1-yl)ethyl)piperidin-1-yl)-3-ethyl-7-fluoro-2-oxo-2,3-dihydro-1H-benzo[d]imidazol-1-yl)piperidine-2,6-dione] | 17.9 nM | 87.2% | 3.09 nM | 85.38% | –
CCc1ccc2c(P(C)(C)=O)c(Nc3nc(Nc4cc(CC)c(N5CCC(N6CCN(C(=O)[C@@H]7CCN(c8cc(F)c([C@H]9CCC(=O)NC9=O)c(F)c8)C7)CC6)CC5)cc4OC(F)(F)F)ncc3Br)ccc2n1 [Example 649, (R)-3-(4-((R)-3-(4-(1-(4-((5-bromo-4-((5-(dimethylphosphoryl)-2-ethylquinolin-6-yl)amino)pyrimidin-2-yl)amino)-2-ethyl-5-(trifluoromethoxy)phenyl)piperidin-4-yl)piperazine-1-carbonyl)pyrrolidin-1-yl)-2,6-difluorophenyl)piperidine-2,6-dione] | 31.8 nM | 78.6% | 6.94 nM | 75.95% | –
